# Experimental data taken from ChEMBL document CHEMBL5244205, “Discovery of tricyclic dipyrrolopyridine derivatives as novel JAK inhibitors” (Bioorg Med Chem, 2017).
# How the values were obtained:
# [1] = target: Mitogen-activated protein kinase kinase kinase 1 (Homo sapiens, UniProt Q13233); experiment: Inhibition of MAP3K1 (unknown origin)
# [2] = Cmax in Sprague-Dawley rat at 1 mg/kg, po measured up to 24 hrs by LC-MS/MS analysis; assay type: ADME, organism-based; set-up: time < 24 hrs, dose 1 mg/kg, route po; conditions: in vivo
# [3] = target: Tyrosine-protein kinase BTK (Homo sapiens, UniProt Q06187); experiment: Inhibition of BTK (unknown origin)
# [4] = target: Tyrosine-protein kinase ABL1 (Homo sapiens, UniProt P00519); experiment: Inhibition of ABL (unknown origin)
# [5] = target: Casein kinase I isoform delta (Homo sapiens, UniProt P48730); experiment: Inhibition of CHKdelta (unknown origin)
# [6] = Half life in Sprague-Dawley rat at 1 mg/kg, po measured up to 24 hrs by LC-MS/MS analysis; assay type: ADME, organism-based; conditions: in vivo
# [7] = AUC (0 to 24 hrs) in Sprague-Dawley rat at 1 mg/kg, po measured up to 24 hrs by LC-MS/MS analysis; assay type: ADME, organism-based; set-up: dose 1 mg/kg, time < 24 hrs, route po; conditions: in vivo
# [8] = target: Mitogen-activated protein kinase 11 (Homo sapiens, UniProt Q15759); experiment: Inhibition of P38beta (unknown origin)
# [9] = Clearance in Sprague-Dawley rat at 1 mg/kg, iv measured up to 24 hrs by LC-MS/MS analysis; assay type: ADME, organism-based; conditions: in vivo
# [10] = pampa, pH 6.5, 2 h
# Description: Permeability of the compound in pH 6.5 incubated for 2 hrs by PAMPA based HPLC analysis
# [11] = target: Angiopoietin-1 receptor (Homo sapiens, UniProt Q02763); experiment: Inhibition of TIE2 (unknown origin)
# [12] = target: Bone morphogenetic protein receptor type-1A (Homo sapiens, UniProt P36894); experiment: Inhibition of BMPR1A (unknown origin)
# [13] = Tmax in Sprague-Dawley rat at 1 mg/kg, po measured up to 24 hrs by LC-MS/MS analysis; assay type: ADME, organism-based; conditions: in vivo
# [14] = target: Tyrosine-protein kinase ITK/TSK (Homo sapiens, UniProt Q08881); experiment: Inhibition of ITK (unknown origin)
# [15] = target: Tyrosine-protein kinase ZAP-70 (Homo sapiens, UniProt P43403); experiment: Inhibition of ZAP70 (unknown origin)
# [16] = target: Cytochrome P450 3A4 (Homo sapiens, UniProt P08684); conditions: microsomes, 20 min, 5 µM
# [17] = target: Tyrosine-protein kinase CSK (Homo sapiens, UniProt P41240); experiment: Inhibition of CSK (unknown origin)
# [18] = Volume of distribution in Sprague-Dawley rat at 1 mg/kg, iv measured up to 24 hrs by LC-MS/MS analysis; assay type: ADME, organism-based; conditions: in vivo
# [19] = target: Ephrin type-A receptor 2 (Homo sapiens, UniProt P29317); experiment: Inhibition of EphA2 (unknown origin)
# [20] = target: Inhibitor of nuclear factor kappa-B kinase subunit beta (Homo sapiens, UniProt O14920); experiment: Inhibition of IKKB (unknown origin)
# [21] = Inhibition of SYK (unknown origin); set-up: species or system Homo sapiens
# [22] = target: Epidermal growth factor receptor (Homo sapiens, UniProt P00533); experiment: Inhibition of EGFR (unknown origin)
# [23] = Oral availability in Sprague-Dawley rat at 1 mg/kg measured up to 24 hrs by LC-MS/MS analysis; assay type: ADME, organism-based; conditions: in vivo
# [24] = target: RAF proto-oncogene serine/threonine-protein kinase (Homo sapiens, UniProt P04049); experiment: Inhibition of RAF1 (unknown origin)
# [25] = target: MAP kinase-activated protein kinase 2 (Homo sapiens, UniProt P49137); experiment: Inhibition of MAPKAPK2 (unknown origin)
# [26] = target: Insulin-like growth factor 1 receptor (Homo sapiens, UniProt P08069); experiment: Inhibition of IGF1R (unknown origin)
# [27] = Half life in Sprague-Dawley rat at 1 mg/kg, iv measured up to 24 hrs by LC-MS/MS analysis; assay type: ADME, organism-based; conditions: in vivo
# [28] = AUC (0 to 24 hrs) in Sprague-Dawley rat at 1 mg/kg, iv measured up to 24 hrs by LC-MS/MS analysis; assay type: ADME, organism-based; set-up: dose 1 mg/kg, time < 24 hrs, route iv; conditions: in vivo
# [29] = target: Focal adhesion kinase 1 (Homo sapiens, UniProt Q05397); experiment: Inhibition of FAK (unknown origin)
# Chain of Focal adhesion kinase 1 (Q05397 whole entry): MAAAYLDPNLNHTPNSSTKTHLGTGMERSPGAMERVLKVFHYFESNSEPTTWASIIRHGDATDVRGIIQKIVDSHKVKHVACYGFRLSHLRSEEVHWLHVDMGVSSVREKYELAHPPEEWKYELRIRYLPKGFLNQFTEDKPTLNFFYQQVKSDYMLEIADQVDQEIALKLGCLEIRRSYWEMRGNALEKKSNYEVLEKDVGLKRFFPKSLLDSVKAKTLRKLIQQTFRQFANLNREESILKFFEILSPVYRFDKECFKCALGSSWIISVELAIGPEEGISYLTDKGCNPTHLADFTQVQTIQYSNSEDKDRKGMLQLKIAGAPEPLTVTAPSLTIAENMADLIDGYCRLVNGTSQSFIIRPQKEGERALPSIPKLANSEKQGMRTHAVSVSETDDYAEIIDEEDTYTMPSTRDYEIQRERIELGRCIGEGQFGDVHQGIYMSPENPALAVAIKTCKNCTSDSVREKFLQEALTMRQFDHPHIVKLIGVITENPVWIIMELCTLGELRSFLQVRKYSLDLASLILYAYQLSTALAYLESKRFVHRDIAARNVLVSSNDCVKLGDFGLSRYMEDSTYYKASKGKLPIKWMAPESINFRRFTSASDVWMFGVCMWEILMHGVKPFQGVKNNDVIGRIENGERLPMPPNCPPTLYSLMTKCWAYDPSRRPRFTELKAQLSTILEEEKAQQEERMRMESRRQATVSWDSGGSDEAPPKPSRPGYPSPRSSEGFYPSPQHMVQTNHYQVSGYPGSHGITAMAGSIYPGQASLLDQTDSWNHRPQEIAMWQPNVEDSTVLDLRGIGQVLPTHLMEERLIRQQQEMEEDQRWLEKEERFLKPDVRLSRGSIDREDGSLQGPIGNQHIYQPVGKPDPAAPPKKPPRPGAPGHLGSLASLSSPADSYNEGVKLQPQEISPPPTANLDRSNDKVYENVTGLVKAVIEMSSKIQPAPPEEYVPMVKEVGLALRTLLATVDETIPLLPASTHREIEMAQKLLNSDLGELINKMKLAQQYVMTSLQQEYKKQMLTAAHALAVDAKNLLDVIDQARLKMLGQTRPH
# Chain of Inhibitor of nuclear factor kappa-B kinase subunit beta (O14920 whole entry): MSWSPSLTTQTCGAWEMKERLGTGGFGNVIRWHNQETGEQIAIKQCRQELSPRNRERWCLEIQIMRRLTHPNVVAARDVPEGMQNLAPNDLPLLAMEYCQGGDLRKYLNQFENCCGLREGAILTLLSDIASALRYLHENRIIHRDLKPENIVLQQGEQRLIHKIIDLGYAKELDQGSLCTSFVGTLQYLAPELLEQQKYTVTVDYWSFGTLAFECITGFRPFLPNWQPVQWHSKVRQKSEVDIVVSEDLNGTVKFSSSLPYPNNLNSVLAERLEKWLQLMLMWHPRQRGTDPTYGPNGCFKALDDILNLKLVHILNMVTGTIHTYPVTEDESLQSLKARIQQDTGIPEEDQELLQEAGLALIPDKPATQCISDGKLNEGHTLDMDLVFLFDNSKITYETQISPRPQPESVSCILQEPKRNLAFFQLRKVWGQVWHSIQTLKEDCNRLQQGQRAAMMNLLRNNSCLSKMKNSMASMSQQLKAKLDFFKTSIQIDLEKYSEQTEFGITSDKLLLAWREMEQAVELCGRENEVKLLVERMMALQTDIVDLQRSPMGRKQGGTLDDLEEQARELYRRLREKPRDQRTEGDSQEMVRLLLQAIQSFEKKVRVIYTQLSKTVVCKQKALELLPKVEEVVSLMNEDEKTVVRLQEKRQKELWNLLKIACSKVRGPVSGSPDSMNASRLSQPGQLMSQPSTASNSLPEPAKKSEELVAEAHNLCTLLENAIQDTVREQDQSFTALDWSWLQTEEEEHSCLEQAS
# Chain of Casein kinase I isoform delta (P48730 whole entry, canonical isoform): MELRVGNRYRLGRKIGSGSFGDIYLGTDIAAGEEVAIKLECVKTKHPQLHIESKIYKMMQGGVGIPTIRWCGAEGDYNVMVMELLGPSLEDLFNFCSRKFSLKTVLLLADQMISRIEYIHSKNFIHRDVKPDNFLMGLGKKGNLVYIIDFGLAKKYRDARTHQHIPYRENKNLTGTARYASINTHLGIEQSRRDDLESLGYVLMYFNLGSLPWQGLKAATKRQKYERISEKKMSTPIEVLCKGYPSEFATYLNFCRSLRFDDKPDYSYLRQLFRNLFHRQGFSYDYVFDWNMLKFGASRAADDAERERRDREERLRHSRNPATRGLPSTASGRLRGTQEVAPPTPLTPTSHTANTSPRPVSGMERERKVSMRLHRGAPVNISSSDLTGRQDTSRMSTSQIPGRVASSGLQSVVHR
# Chain of Angiopoietin-1 receptor (Q02763 whole entry): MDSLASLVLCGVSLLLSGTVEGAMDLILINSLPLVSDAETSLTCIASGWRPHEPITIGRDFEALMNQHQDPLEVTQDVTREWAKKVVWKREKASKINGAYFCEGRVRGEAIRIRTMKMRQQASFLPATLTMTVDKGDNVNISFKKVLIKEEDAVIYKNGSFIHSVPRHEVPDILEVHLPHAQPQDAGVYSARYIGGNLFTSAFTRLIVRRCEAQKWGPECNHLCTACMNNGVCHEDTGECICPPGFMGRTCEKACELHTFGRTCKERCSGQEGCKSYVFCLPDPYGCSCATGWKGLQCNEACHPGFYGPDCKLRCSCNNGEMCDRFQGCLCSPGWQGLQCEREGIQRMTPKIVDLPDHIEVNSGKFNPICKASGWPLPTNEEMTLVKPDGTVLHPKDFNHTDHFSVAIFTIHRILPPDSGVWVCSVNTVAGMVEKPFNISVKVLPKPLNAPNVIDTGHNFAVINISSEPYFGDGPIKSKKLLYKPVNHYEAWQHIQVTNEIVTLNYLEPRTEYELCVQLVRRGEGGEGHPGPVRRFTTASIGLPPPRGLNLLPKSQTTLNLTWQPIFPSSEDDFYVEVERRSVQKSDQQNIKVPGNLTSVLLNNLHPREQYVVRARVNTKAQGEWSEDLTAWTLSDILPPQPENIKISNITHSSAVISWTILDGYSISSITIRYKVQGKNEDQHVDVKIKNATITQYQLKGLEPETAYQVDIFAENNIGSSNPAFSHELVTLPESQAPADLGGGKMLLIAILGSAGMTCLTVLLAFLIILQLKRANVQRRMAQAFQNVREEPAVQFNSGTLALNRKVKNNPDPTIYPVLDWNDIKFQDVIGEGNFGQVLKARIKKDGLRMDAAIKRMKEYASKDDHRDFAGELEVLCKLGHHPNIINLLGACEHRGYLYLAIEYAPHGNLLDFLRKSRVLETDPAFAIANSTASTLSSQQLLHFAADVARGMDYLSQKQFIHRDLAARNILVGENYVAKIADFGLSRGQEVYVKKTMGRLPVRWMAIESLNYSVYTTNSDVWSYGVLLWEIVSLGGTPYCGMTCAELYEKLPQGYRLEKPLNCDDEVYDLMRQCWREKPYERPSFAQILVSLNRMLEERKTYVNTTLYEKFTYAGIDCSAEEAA
# Chain of Cytochrome P450 3A4 (P08684 whole entry): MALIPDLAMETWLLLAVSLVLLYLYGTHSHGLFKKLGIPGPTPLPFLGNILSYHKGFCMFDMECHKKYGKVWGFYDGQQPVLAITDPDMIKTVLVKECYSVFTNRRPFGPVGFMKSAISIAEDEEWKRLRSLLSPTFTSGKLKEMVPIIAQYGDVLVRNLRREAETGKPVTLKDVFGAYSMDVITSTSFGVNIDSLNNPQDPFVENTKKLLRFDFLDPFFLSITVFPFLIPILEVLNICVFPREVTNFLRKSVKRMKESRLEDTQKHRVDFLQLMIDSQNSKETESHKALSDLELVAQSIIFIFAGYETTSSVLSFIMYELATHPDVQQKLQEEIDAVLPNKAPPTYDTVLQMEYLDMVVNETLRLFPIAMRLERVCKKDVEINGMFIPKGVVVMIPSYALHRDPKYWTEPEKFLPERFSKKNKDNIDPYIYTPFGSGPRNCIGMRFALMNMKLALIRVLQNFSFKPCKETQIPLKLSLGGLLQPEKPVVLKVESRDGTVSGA
# Chain of Tyrosine-protein kinase BTK (Q06187 whole entry): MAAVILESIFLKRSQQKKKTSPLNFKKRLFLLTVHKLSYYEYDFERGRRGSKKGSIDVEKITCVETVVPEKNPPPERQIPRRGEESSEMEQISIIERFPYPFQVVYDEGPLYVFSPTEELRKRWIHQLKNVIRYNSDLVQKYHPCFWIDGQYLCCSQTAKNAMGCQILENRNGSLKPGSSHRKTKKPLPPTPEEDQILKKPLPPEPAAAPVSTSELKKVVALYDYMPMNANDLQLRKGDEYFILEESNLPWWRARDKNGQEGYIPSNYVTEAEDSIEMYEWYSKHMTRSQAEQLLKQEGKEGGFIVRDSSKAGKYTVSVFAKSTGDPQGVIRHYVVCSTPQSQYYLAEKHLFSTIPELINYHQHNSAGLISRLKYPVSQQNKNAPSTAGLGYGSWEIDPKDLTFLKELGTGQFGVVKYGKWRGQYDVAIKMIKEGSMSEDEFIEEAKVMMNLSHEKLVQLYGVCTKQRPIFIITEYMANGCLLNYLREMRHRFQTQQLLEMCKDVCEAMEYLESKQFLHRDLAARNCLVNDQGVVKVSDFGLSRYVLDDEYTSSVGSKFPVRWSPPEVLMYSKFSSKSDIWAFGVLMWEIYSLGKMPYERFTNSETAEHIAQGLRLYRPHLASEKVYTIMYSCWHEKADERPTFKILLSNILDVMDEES
# Chain of Bone morphogenetic protein receptor type-1A (P36894 whole entry): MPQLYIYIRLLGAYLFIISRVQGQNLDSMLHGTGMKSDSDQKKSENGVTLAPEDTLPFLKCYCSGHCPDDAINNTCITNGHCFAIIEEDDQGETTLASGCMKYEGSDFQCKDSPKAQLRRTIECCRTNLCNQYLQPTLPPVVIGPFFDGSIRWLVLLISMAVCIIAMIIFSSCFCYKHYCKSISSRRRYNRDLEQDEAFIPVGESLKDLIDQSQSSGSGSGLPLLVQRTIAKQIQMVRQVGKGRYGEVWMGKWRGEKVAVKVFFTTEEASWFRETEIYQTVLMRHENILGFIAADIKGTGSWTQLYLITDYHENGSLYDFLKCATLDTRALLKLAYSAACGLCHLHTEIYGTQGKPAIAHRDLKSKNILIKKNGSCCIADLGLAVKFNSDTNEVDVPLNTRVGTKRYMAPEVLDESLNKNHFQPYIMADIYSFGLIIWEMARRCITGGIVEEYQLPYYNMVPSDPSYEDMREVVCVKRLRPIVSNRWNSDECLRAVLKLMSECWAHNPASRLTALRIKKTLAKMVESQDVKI
structure (smiles),measurement,setting,value
C[C@@H]1CCN(C(=O)CC#N)C[C@@H]1n1ccc2cnc3[nH]cc(C#N)c3c21,IC50,[1],> 1000 nM
same,Cmax,[2],178 ng/mL
same,IC50,[3],> 1000 nM
same,IC50,[4],> 1000 nM
same,IC50,[5],> 1000 nM
same,half-life,[6],239 min
same,AUC(0-t) at 24 h,[7],916 ng·h/mL
same,IC50,[8],> 1000 nM
same,clearance,[9],20.2 mL/min/kg
same,permeability,[10],14 10^-6 cm/s
same,IC50,[11],> 1000 nM
same,IC50,[12],> 1000 nM
same,Tmax,[13],19.8 min
same,IC50,[14],> 1000 nM
same,IC50,[15],> 1000 nM
same,TDI,[16],93%
same,IC50,[17],> 1000 nM
same,Vd,[18],0.97 L/kg
same,IC50,[19],> 1000 nM
same,IC50,[20],> 1000 nM
same,IC50,[21],> 1000 nM
same,IC50,[22],> 1000 nM
same,bioavailability,[23],82.4%
same,IC50,[24],> 1000 nM
same,IC50,[25],> 1000 nM
same,IC50,[26],> 1000 nM
same,half-life,[27],472 min
same,AUC(0-t) at 24 h,[28],1110 ng·h/mL
same,IC50,[29],> 1000 nM
